Consider 38 compounds from patent US4935240A, “Benzoylaminophenoxybutanoic acid derivatives” (Ono Pharmaceutical Co., Ltd., priority 1987, dated 1990).

Where only a bound is given, the exact number is not on record here.

Broadly, the IC50 is the concentration that gives 50% inhibition.

This assay deals with 5α-reductase. Kind of assay: 5α-reductase inhibitory activity in vitro. Format: biochemical. Particulars: rat prostate enzyme, [4-C14]testosterone + NADPH, 60 mins at 37° C. How it is done: 5α-reductase inhibitory activity in vitro
Inhibitory activity on 5α-reductase in vitro was measured by the following test system.
The test was carried out by being referred to the method of J. Shimazaki et al [See Endocrinol, Japan., 18, 179 (1971)].
Male rats' prostate (4g) was homogenized with its 3-fold volume of 0.1 M HEPES buffer (pH 7.4) including 0.25 M cane sugar, and was centrifuged at 3000 r.p.m. for 10 mins.
The precipitate was suspended into the buffer solution described above (10 ml), and the suspension was centrifuged at 3000 r.p.m. for 5 mins. The resulting precipitated was suspended in the buffer solution (3 ml) described above and was used as a sauce of enzyme.
A reaction mixture (total volume 0.1 ml) of [4-c^14 ]testosterone (1.5n mol, 1.5×10^5 cpm), NADPH (0.5 μmol), enzyme solution (0.03 ml) described above and several kinds of concentration of the compounds in the present invention was incubated for 60 mins at 37° C. Enzyme reaction was quenched by addition of a mixture (0.4 ml) of chloroform and methanol (1:2), and the mixture was centrifuged at 2000 r.p.m. for 3 mins. The supernatant (50 μl) was spotted on silica gel thin layer plate. The spot on the plate was developed with a mixture of chloroform, methanol and acetic acid (99.2:0.6:0.2). Radioactivity of dihydrotestosterone generated on the plate was measured by TLC scanner of radio-autography and inhibitory ratio was calculated.
Regarding `O=C(O)CCCOc1ccccc1NC(=O)c1ccc(OCc2ccccc2)cc1` [1(a), 4-[2-(4-benzyloxybenzoylamino)phenoxy]butanoic acid], the IC50 came to 200 nM.
As to `Cc1ccc(COc2ccc(C(=O)Nc3ccccc3OCCCC(=O)O)cc2)cc1` [1(b), 4-[2-[4-(4-methylphenylmethoxy)benzoylamino]phenoxy]butanoic acid], the 50% inhibitory concentration (IC50) came out at 330 nM.
For `CCc1ccc(COc2ccc(C(=O)Nc3ccccc3OCCCC(=O)O)cc2)cc1` [1(c), 4-[2-[4-(4-ethylphenylmethoxy)benzoylamino]phenoxy]butanoic acid] the value was 320 nM; for `CCCc1ccc(COc2ccc(C(=O)Nc3ccccc3OCCCC(=O)O)cc2)cc1` [1(d), 4-[2-[4-(4-propylphenylmethoxy)benzoylamino]phenoxy]butanoic acid], 130 nM.
For `CC(C)c1ccc(COc2ccc(C(=O)Nc3ccccc3OCCCC(=O)O)cc2)cc1` [1(e), 4-[2-[4-(4-isopropylphenylmethoxy)benzoylamino]phenoxy]butanoic acid] the value was 220 nM; for `O=C(O)CCCOc1ccccc1NC(=O)c1ccc(OCCCc2ccccc2)cc1` [1(f), 4-[2-[4-(3-phenylpropoxy)benzoylamino]phenoxy]butanoic acid], 200 nM; for `O=C(O)CCCOc1ccccc1NC(=O)c1ccc(OCCCCc2ccccc2)cc1` [1(g), 4-[2-[4-(4-phenylbutoxy)benzoylamino]phenoxy]butanoic acid], 440 nM.
For `Cc1cc(OCc2ccc(CC(C)C)cc2)ccc1C(=O)Nc1ccccc1OCCCC(=O)O` [1(h), 4-[2-[4-(4-isobutyphenylmethoxy)-2-methylbenzoylamino]phenoxy]butanoic acid] the value was 570 nM; for `Cc1cc(C(=O)Nc2ccccc2OCCCC(=O)O)ccc1OCc1ccc(CC(C)C)cc1` [1(i), 4-[2-[4-(4-isobutyphenylmethoxy)-3-methylbenzoylamino]phenoxy]butanoic acid], 430 nM; for `CCCc1ccc(CN(Cc2ccc(CCC)cc2)c2ccc(C(=O)Nc3ccccc3OCCCC(=O)O)cc2)cc1` [2(a), 4-[2-[4-[N, N-bis(4-propylbenzyl)amino]benzoylamino]phenoxy] butanoic acid], 23 nM.
For the compound `Cc1cc(N(Cc2ccc(CC(C)C)cc2)Cc2ccc(CC(C)C)cc2)ccc1C(=O)Nc1ccccc1OCCCC(=O)O` [2(b), 4-[2-[4-[N, N-bis(4-isobutylbenzyl)amino]-2-methylbenzoylamino]phenoxy]butanoic], the half-inhibitory concentration (IC50) was 25 nM.
The value for `CCCCCN(CCCCC)c1ccc(C(=O)Nc2ccccc2OCCCC(=O)O)c(C)c1` [2(c), 4-[2-[4-[N, N-dipenthylamino)-2-methylbenzoylamino]phenoxy] butanoic acid] was 300 nM; that for `CCCCCN(Cc1ccc(CCC)cc1)c1ccc(C(=O)Nc2ccccc2OCCCC(=O)O)c(C)c1` [2(d)] was 25 nM.
On to `CCCc1ccc(CN(C)c2ccc(C(=O)Nc3ccccc3OCCCC(=O)O)c(C)c2)cc1` [2(e), 4-[2-[4-[N-methyl-N-(4-propylbenzyl)amino]-2-methylbenzoylamino]phenoxy]butanoic], for which the IC50 was determined as 44 nM.
For `Cc1cc(N(CCCCc2ccccc2)CCCCc2ccccc2)ccc1C(=O)Nc1ccccc1OCCCC(=O)O` [2(f), 4-[2-[4-[N, N-bis(4-phenylbutyl)amino]-2-methylbenzoylamino]phenoxy]butanoic] the value was 170 nM; for `Cc1cc(N(Cc2ccc(C(C)C)cc2)Cc2ccc(C(C)C)cc2)ccc1C(=O)Nc1ccccc1OCCCC(=O)O` [2(g), 4-[2-[4-[N, N-bis(4-isopropylbenzyl)amino]-2-methylbenzoylamino]phenoxy] butanoic], 27 nM; for `Cc1cc(N(Cc2ccc(F)cc2F)Cc2ccc(F)cc2F)ccc1C(=O)Nc1ccccc1OCCCC(=O)O` [2(h)], 140 nM.
For `CCCc1ccc(CN(C(=O)c2ccc(CCC)cc2)c2ccc(C(=O)Nc3ccccc3OCCCC(=O)O)c(C)c2)cc1` [2(i)] the value was 150 nM; for `Cc1cc(N(Cc2ccccc2C(F)(F)F)Cc2ccccc2C(F)(F)F)ccc1C(=O)Nc1ccccc1OCCCC(=O)O` [2(j)], 26 nM.
For `Cc1cc(N(Cc2ccc(C(F)(F)F)cc2)Cc2ccc(C(F)(F)F)cc2)ccc1C(=O)Nc1ccccc1OCCCC(=O)O` [2(k), 4-[2-[4-[N,N-bis-(4-trifluoromethylbenzyl)amino]-2-methylbenzoylamino]phenoxy] butanoic] the value was 580 nM.
For the compound `CC(C)Cc1ccc(CNc2ccc(C(=O)Nc3ccccc3OCCCC(=O)O)cc2)cc1` [2(l), 4-[2-[4-(4-isobutylbenzylamino)benzoylamino]phenoxy] butanoic acid], the IC50 is 150 nM.
The value for `Cc1cc(NCc2ccc(CC(C)C)cc2)ccc1C(=O)Nc1ccccc1OCCCC(=O)O` [2(m), 4-[2-[4-(4-isobutylbenzylamino)-2-methylbenzoylamino]phenoxy] butanoic acid] was 120 nM; that for `CCCc1ccc(CNc2ccc(C(=O)Nc3ccccc3OCCCC(=O)O)c(C)c2)cc1` [2(n), 4-[2-[4-(4-propylbenzylamino)-2-methylbenzoylamino]phenoxy] butanoic acid] was 40 nM.
For `Cc1cc(NC(C)c2ccc(CC(C)C)cc2)ccc1C(=O)Nc1ccccc1OCCCC(=O)O` (centres unmarked) [2(o), 4-[2-[4-[1-(4-isobutylphenyl)ethylamino]-2-methylbenzoylamino]pehnoxy]butanoic] the value was 35 nM; for `Cc1cc(NCc2ccc(C(C)C)cc2)ccc1C(=O)Nc1ccccc1OCCCC(=O)O` [2(p), 4-[2-[4-(4-isopropylbenzylamino)-2-methylbenzoylamino]phenoxy] butanoic acid], 80 nM; for `Cc1cc(NCc2ccccc2C(F)(F)F)ccc1C(=O)Nc1ccccc1OCCCC(=O)O` [2(q), 4-[2-[4-(2-trifluoromethylbenzylamino)-2-methylbenzoylamino]phenoxy] butanoic], 220 nM.
The value for `CCCc1ccc(C(Nc2ccc(C(=O)Nc3ccccc3OCCCC(=O)O)c(C)c2)c2ccc(CCC)cc2)cc1` [2(r), 4-[2-[4-[bis(4-propylphenyl)methylamino]-2-methylbenzoylamino]phenoxy] butanoic] was 2.5 nM; that for `CCCc1ccc(C(Nc2ccc(C(=O)Nc3ccccc3OCCCC(=O)O)cc2)c2ccc(CCC)cc2)cc1` [2(s), 4-[2-[4-[bis(4-propylphenyl)methylamino]benzoylamino]phenoxy] butanoic acid] was 11 nM; that for `CCCc1ccc(CNc2ccc(C(=O)Nc3ccccc3SCCCC(=O)O)c(C)c2)cc1` [3(a), 4-[2-[4-(4-propylbenzylamino)-2-methylbenzoylamino]phenylthio] butanoic acid] was 56 nM.
With `CCCc1ccc(CN(Cc2ccc(CCC)cc2)c2ccc(C(=O)Nc3ccccc3SCCCC(=O)O)c(C)c2)cc1` [3(b), 4-[2-[4-[N,N-bis(4-propylbenzyl)amino]-2-methylbenzoylamino]phenylthio]butanoic], the half-inhibitory concentration (IC50) worked out at 25 nM.
For `CCCc1ccc(C(Oc2ccc(C(=O)Nc3ccccc3OCCCC(=O)O)cc2)c2ccc(CCC)cc2)cc1` [4(a), 4-[2-[4-[bis(4-propylphenyl)methoxy]benzoylamino]phenoxy] butanoic acid] the value was 3 nM; for `CCCc1ccc(C(Oc2ccc(C(=O)Nc3ccccc3OCCCC(=O)O)c(C)c2)c2ccc(CCC)cc2)cc1` [4(b), 4-[2-[4-[bis(4-propylphenyl)methoxy]-2-methylbenzoylamino]phenoxy]butanoic], 6.5 nM; for `O=C(O)CCCOc1ccccc1NC(=O)c1ccc(CNc2cccc3c2CCCC3)cc1` [6(b), 4-[2-[4-(5,6,7,8-tetrahydronaphthalene-1-yl)aminomethylbenzoylamino]phenoxy] butanoic], 230 nM.
`CN(Cc1ccc(C(=O)Nc2ccccc2OCCCC(=O)O)cc1)c1cccc2c1CCCC2` [6(c), 4-[2-[4-[N-methyl-N-(5,6,7,8,- tetrahydronaphthalene-1-yl)aminomethyl]benzoylamino]phenoxy] butanoic acid]: the half-inhibitory concentration (IC50) was 140 nM.
For `O=C(O)CCCOc1ccccc1NC(=O)c1ccc(OCCCCc2ccccc2)cc1` [Compared compound 2, reference compound] the value was greater than 20000 nM; for `CC(C)Cc1ccc(COc2ccc(C(=O)Nc3ccccc3OCCCC(=O)O)cc2)cc1` [Example 1, 4-[2-[4-(4-isobutylphenylmethoxy)benzoylamino]phenoxy]butanoicacid], 80 nM; for `CCCc1ccc(CN(Cc2ccc(CCC)cc2)c2ccc(C(=O)Nc3ccccc3OCCCC(=O)O)c(C)c2)cc1` [Example 2, 4-[2-[2-methyl-4-[N,N-bis(4-propylbenzyl)amino]benzoylamino]phenoxy]butanoic acid], 11 nM.
The value for `CCCc1ccc(CN(Cc2ccc(CCC)cc2)c2ccc(C(=O)Nc3ccccc3[S+]([O-])CCCC(=O)O)c(C)c2)cc1` (centres unmarked) [Example 5, 4-[2-[4-[N,N-bis(4-propylbenzyl)amino]-2-methylbenzoylamino]phenylsulfinyl]butanoic acid] was 65 nM.
